Results as given in US20070172514A1, “Materials and methods for improving livestock productivity” (priority 2006, published 2007).
Marks after values point to notes of the source that are not given here.

What was measured:
pig intestine villi = assay: Intestine villi length and histology in pigs; type: in vivo, swine; conditions: 30 days
Method: 72 piglets were evenly divided into control group and Cysteamine group. The control group was treated with basal diet only, while the Cysteamine group was added with 150 g of cysteamine hydrochloride per ton of feed. The trial was lasted for 30 days.
Immediately after evisceration, tissue samples from the small intestine, large intestine, liver, and pancreas of pigs from each treatment group were collected. The collected samples were placed in properly labeled containers containing 10% buffered neutral formalin solution. The tissue samples were fixed for 78 hours before they were processed for routine histological examination using the paraffin embedding technique (well-known to the skilled artisan).
Sections approximately 5 to 6 μ thick were cut from paraffin blocked tissues using Optical 820 Rotary Microtome (Scientific Instruments Division, Buffalo, N.Y.). Some sections were stained with hematoxylin and eosin (H & E), others with Alcian blue. H & E stained sections were used for the examination of the general histology of the intestinal tract while the Alcian blue stained sections were used for goblet cells identification. The stained sections were examined under various magnifications using a light microscope.
The number and length (μm) of villi in the small intestine were counted per microscopic field; the thickness of the tunica muscularis in the small and large intestine were measured using American Optical Micrometer (American Optical Company, Buffalo, N.Y.) calibrated in millimeters. The mucosal folds in the large intestine, the density of intestinal glands (crypts), the appearance of the surface epithelium were all observed. The general histology of the liver and pancreas were examined and compared between Cysteamine treated and non-Cysteamine treated groups. Goblet cell density in the Cysteamine treated and non-Cysteamine treated pigs was compared through visual examination using light microscope.

fattening pigs = assay: Carcass composition/appearance of fattening pigs; type: in vivo, swine
Method: 72 piglets were divided evenly into control group and Cysteamine group. The control group was treated with basal diet while the Cysteamine group was treated with basal diet added with 150 g cysteamine hydrochloride per ton of feed. Upon reaching the market weight of 85-90 kg, five animals from each treatment were slaughtered after fasting for one day. During slaughter, the animals were stunned with a stunning gun, bled, dehaired and eviscerated. The carcass was split […] and then chilled for 24 hours prior to fabrication. The slaughter and the chilled carcass weights were recorded. The chilled carcass weight expressed as percentage of the slaughter weight represents the dressed yield. The wholesale and retail cuts of each animals were weighed and recorded. The values were expressed as the percentage of the live weight and of the chilled carcass weight.
The area of the longissimus dorsi (LD) muscle was measured on the 12th rib of the right part of the carcasses. This was done by tracing the outline of the whole LD muscle on acetate paper and the area was measured with the use of a grading method.

crossbreed sheep = assay: Enhanced productivity in crossbreed sheep; type: in vivo; conditions: 35 days
small-fat-tail sheep = assay: Enhanced productivity in small-fat-tail sheep; type: in vivo; conditions: 35 days
Method: In the following example, the test animals were sheep (small-fat-tail sheep). The experiment was performed at the Goat Trial Farm of Beijing Shengshifumin Muslim Food Company during the thirty-five day period from Dec. 2, 2004 to Jan. 5, 2005. In total, 40 heads of small-fat-tail sheep with the average weight of 26.5 kg were randomly divided into Control group (20) and Cysteamine group (20). The control group was fed with basal diet only, while the Cysteamine group was fed a diet that included 900 g cysteamine HCl per tonnage of diet. The standard basal diet of the farm was employed for this trial.

D×L×M weanling piglets = assay: Enhanced growth in swine: weanling piglets fed cysteamine hydrochloride; type: in vivo; conditions: 30 days; for ADG, Improvement (%): (text: 90 g per ton of feed), hydrochloride
Source text: Total of 100 heads of unhealthy D×L×M weanling piglets (approx. 6.78 kg) were divided into 2 groups—Control group (50 heads) & Cysteamine group (50 heads). The Control group was fed with basal diet. […]

[1] = system: Ximenta'er hybridizing beef cattle; assay: Enhanced productivity in beef cattle; type: in vivo
Method: In the following example, the test animals were beef cattle (Ximenta'er hybridizing beef cattle). The experiment was performed at the Hebei Hengshui Geling Beef Cattle Raising Farm dur the period from Oct. 10 to Dec. 21, 2002. In total, 64 heads of around 350 kg Ximenta'er hybridizing beef cattle were selected and separated into 4 groups randomly according to the principle of equalizing age, weight, grace, fur/hair condition, etc. Each group had 16 heads of beef cattle. The Control Group, Test Group I, II & III were fed a composition comprising 0, 1.5, 3, 6 g/head/day of cysteamine HCl, respectively. As noted in Tables 8, 9, and 10 below, adding a cysteamine compound to the basal diet of beef cattle can increase daily weight gain.

pregnant pig sow = assay: Enhanced productivity in swine: pregnant sows fed cysteamine hydrochloride; type: in vivo, swine (D×L×M hybrid swine); parameters: Live piglet born rate, Improvement / Live piglet born rate, Improvement (%) / Birth weight per litter, Improvement: dose or concentration left out as unconfirmed; conditions: for Birth weight per litter, Improvement (%) / Birth weight per piglet, Improvement (%) / Body weight of weaned piglet, Improvement (%): hydrochloride
Source text: A total of 14 heads of pregnant pig sow (which were the offspring of Duroc×Landrace×Meishan swine, also referred to herein as D×L×M hybrid swine) (84 days of pregnant) were divided into 2 groups: Control group (6) and Cysteamine group (8). The Control group was fed with basal diet. […]

[2] = in words, 150 g per ton of feed
[3] = 150 g per ton of feed, slaughter at 85-90 kg
[4] = feed consumption, 20 head, 900 g/tonnage
[5] = in words, 900 g cysteamine HCl per tonnage of diet
[6] = relative to control, 900 g/tonnage
[7] = vs control, 90 g cysteamine hydrochloride per ton of feed
[8] = Test III, 6 g/head/day, p<0.05 vs Control
[9] = late phase pregnant sow, (text: 150 g per ton feed)
[10] = relative to control, (text: 150 g per ton feed)
[11] = relative to control, Dosage (text: 150 g per ton feed)

## Cl.NCCS [Cysteamine HCl, cysteamine hydrochloride]
Pig intestine villi; 150 g of cysteamine hydrochloride per ton of feed, same letter as Non-Cysteamine (p>0.05), unit only in method b111
  Villi Length, Small Intestines: 2.15 ± 0.09^A μm
Pig intestine villi; [2]
  goblet cells in the small and large intestine vs non-Cysteamine-treated: noticeably larger and highly distended
  length of small intestinal villi vs non-Cysteamine treated: longer
  number of small intestinal villi vs non-Cysteamine treated: more numerous
Fattening pigs; 150 g cysteamine hydrochloride per ton of feed, slaughter at 85-90 kg, five animals
  Dressing %: 69.012%
Fattening pigs; [3]
  Lean:Fat Ratio: 0.105
  Loin Eye Area: 4.850 sq.cm
Fattening pigs; 150 g per ton of feed, slaughter at 85-90 kg, P < 0.05 vs Non-Cysteamine HCl
  Backfat Thickness: 1.91^a cm
Fattening pigs; in words
  backfat vs pigs fed diet without cysteamine hydrochloride: significantly thinner
  differences in dressing percentage, loin eye area, and lean:fat ratio vs diet without cysteamine hydrochloride: no significant differences
  loin cut and lean trimmings as a percent of the live-weight vs diets without cysteamine hydrochloride: significantly higher
Crossbreed sheep; 20 head, 900 g/tonnage
  Total feed consumption: 1001.2 kg
Crossbreed sheep; Dosage 900 g/tonnage
  ADG: 82.29 g/head/day
  Final weight: 29.59 kg/head
  Weight gain: 2.88 kg/head
Crossbreed sheep; [4]
  Concentrate: 245 kg
  Hay: 350.0 kg
  Silage: 406.2 kg
Crossbreed sheep; [5]
  ADG vs control: statistically significant increase
Crossbreed sheep; [6]
  ADG, Improvement (%): 46.2%
  Silage, Improvement (%): −5.14%
  Weight gain, Improvement (%): 46.2%
small-fat-tail sheep; 20 head, 900 g/tonnage
  Total feed consumption: 1019.38 kg
small-fat-tail sheep; Dosage 900 g/tonnage
  Final weight: 28.92 kg/head
  Weight gain: 3.350 kg/head
  daily weight gain: 95.71 g/head/day
small-fat-tail sheep; [4]
  Concentrate: 245 kg
  Hay: 350.00 kg
  Silage: 424.38 kg
small-fat-tail sheep; [5]
  ADG vs control: statistically significant increase
small-fat-tail sheep; [6]
  Daily weight gain, Improvement (%): 30.9%
  Silage, Improvement (%): −16.22%
  Weight gain, Improvement (%): 30.9%
D×L×M weanling piglets; 50 head
  Total feed consumption: 1076.1 kg
  Total final weight: 973 kg
  Total weight gain: 633 kg
D×L×M weanling piglets
  Daily feed consumption: 717.4 g/head
  Weight gain: 12.66 kg/head
D×L×M weanling piglets; average daily weight gain
  ADG: 422 g/head
D×L×M weanling piglets; difference vs control, 50 head
  Total feed consumption, Improvement: +66.3 kg
  Total final weight, Improvement: +75 kg
  Total weight gain, Improvement: +72.5 kg
D×L×M weanling piglets; difference vs control
  ADG, Improvement: +48 g/head
  Daily feed consumption, Improvement: +44.2 g/head
  FCR, Improvement: −0.1
  Final Wt., Improvement: +1.5 kg/head
  Weight gain, Improvement: +1.45 kg/head
D×L×M weanling piglets; feed conversion rate
  FCR: 1.70
D×L×M weanling piglets; of 50 head
  Diarrhea: 21 head
D×L×M weanling piglets; relative to control
  Diarrhea, Improvement (%): −43.24%
  FCR, Improvement (%): −5.56%
D×L×M weanling piglets; relative to control, listed as Cysteamine
  ADG, Improvement (%): 12.83%
D×L×M weanling piglets; relative to control, listed as cysteamine hydrochloride
  ADG, Improvement (%): 12.83%
D×L×M weanling piglets; [7]
  decrease in feed conversion rate (FCR): 5.56%
  improvement in diarrhea condition: 43.24%
D×L×M weanling piglets; weanling piglets, Treatment (text: 90 g cysteamine hydrochloride per ton of feed)
  Final Wt.: 19.46 kg/head
[1]; Test Group III, 6 g/head/day, p<0.05 vs Control, Test Group I & II
  daily weight gain: 1.217 kg
[1]; Test I, 1.5 g/head/day
  Feed Conversion Rate (FCR), Concentrated feed: 3.54
  Feed Conversion Rate (FCR), Corn Silage: 14.14
  Feed Conversion Rate (FCR), Raw Grass: 1.21
  Final Wt.: 423.8 kg
[1]; Test II, 3 g/head/day
  Feed Conversion Rate (FCR), Concentrated feed: 3.70^a
  Feed Conversion Rate (FCR), Corn Silage: 14.42^a
  Feed Conversion Rate (FCR), Raw Grass: 1.27^a
  Final Wt.: 420.5 kg
[1]; Test III, 6 g/head/day
  Feed Conversion Rate (FCR), Raw Grass: 1.06^a
  Final Wt.: 432.7 kg
[1]; [8]
  Feed Conversion Rate (FCR), Concentrated feed: 3.09^b
  Feed Conversion Rate (FCR), Corn Silage: 12.87^b
Pregnant pig sow; difference vs control
  Birth weight per litter, Improvement: 2.50 kg
  Birth weight per piglet, Improvement: 0.23 kg/head
  Live piglet born rate, Improvement: 0.00%
Pregnant pig sow; difference vs control, weaning age 19 days
  Body weight of weaned piglet, Improvement: 0.46 kg/head
Pregnant pig sow; late phase pregnant sow, 8 sows, Dosage (text: 150 g cysteamine hydrochloride per ton feed), from 84 days of pregnant to weaning
  Total piglet born: 82 head
Pregnant pig sow; late phase pregnant sow, 8 sows, Dosage (text: 150 g per ton feed)
  Total live piglet born: 82 head
Pregnant pig sow; [9]
  Birth weight per litter: 21.32 kg
  Birth weight per piglet: 2.08 kg/head
  Live piglet born per litter: 10.29 head
  Live piglet born rate: 100.00%
Pregnant pig sow; late phase pregnant sow, Dosage (text: 150 g per ton feed), from 84 days of pregnant to weaning
  Piglet born per litter: 10.29 head
Pregnant pig sow; relative to control
  Live piglet born rate, Improvement (%): 0.00%
Pregnant pig sow; [10]
  Birth weight per litter, Improvement (%): 13.28%
  Birth weight per piglet, Improvement (%): 12.43%
Pregnant pig sow; [11]
  Birth weight per litter, Improvement (%): 13.28%
  Birth weight per piglet, Improvement (%): 12.43%
Pregnant pig sow; relative to control, weaning age 19 days, listed as Cysteamine
  Body weight of weaned piglet, Improvement (%): 8.00%
Pregnant pig sow; relative to control, weaning age 19 days, listed as cysteamine hydrochloride
  Body weight of weaned piglet, Improvement (%): 8.00%
Pregnant pig sow; weaning age 19 days, Dosage (text: 150 g per ton feed)
  Body weight of weaned piglet: 6.21 kg/head
